Reference: patent US20090136579A1, “Nanoparticles Comprising a PDGF Receptor Tyrosine Kinase Inhibitor” (priority 2006, published 2009)
“Also recorded” adds a separate entry of the source. Like-named read-outs stand apart in the source and are kept apart here.

Columns and labels:
[1] = tested on: Rat aortic SMCs; conditions: for inhibition of PDGF-BB induced SMC migration, dose dependence: free Imatinib 0.1, 1, 10 μM, PDGF-BB 10 ng/ml
Procedure: Migration of rat aortic SMCs is assessed with a Boyden chamber type cell migration assay kit housing a collagen-precoated polycarbonate membrane with 8.0-μm pores (Chemicon), as we previously described (Ono H, Ichiki T, et al. Arterioscler Thromb Vasc Biol. 2004; 24:1634-9.). SMCs are grown to semiconfluent and then made quiescent in serum free medium for 24 hours before migration. The cells (1×10^5 cells/ml) are added to the upper chamber of the membrane (n=6 per group) and allowed to migrate through the pores. […] These cells are washed with PBS before PDGF stimulation. SMCs are then exposed. to PDGF-BB (10 ng/ml) in the lower chamber for 4 hours, after which non-migrated cells are removed from the upper chamber using a cotton swab. The SMCs that migrate to the lower side of the filter are fixed in methanol, stained with Diff-Quick staining solution (Baxter), and counted under a microscope for quantification of SMC migration.

[2] = tested on: Human coronary artery arterial vascular SMCs; conditions: for inhibition of PDGF-BB induced SMC proliferation, dose dependence: free Imatinib 0.1, 1, 10 μM, PDGF-BB 10 ng/ml
Procedure: Human coronary artery arterial vascular SMCs (Cambrex Bio Science Walkersville, Inc) are seeded on 48-well culture plates (FALCON 354506 BIOCOAT CELL WARE Human Fibronectin) at 5×10^3 cells per well (n=6 per group) in SM-BM with 10% FBS. After 24 hours, the cells are starved for 72 hours in serum free medium to obtain quiescent non-dividing cells. After starvation, recombinant PDGF-BB (Sigma) 10 ng/m^1 is added. […] These wells are washed with PBS before PDGF stimulation. Four days later, the cells are fixed with methanol and stained with Diff-Quick staining solution (Baxter). A single observer who is blinded the experimental protocol counted the number of cells/plate under a microscope for quantification of SMC proliferation.

[3] = tested on: rabbit vein graft; test: Rabbit vein graft failure model (vein autograft implanted into carotid artery); assay type: in vivo; conditions: graft treated for 30 min, Imatinib 10% w/v; 4 weeks
From the text: A rabbit vein autograft is implanted into a carotid artery to prepare a rabbit vein graft failure model. In this model, a lumen stenosis due to neointimal formation develops after 4 weeks.

[4] = listed as non-encapsulated Imatinib
[5] = free Imatinib at 0.1 μM, listed as free Imatinib

## Cc1ccc(NC(=O)c2ccc(CN3CCN(C)CC3)cc2)cc1Nc1nccc(-c2cccnc2)n1 [Imatinib, N-{5-[4-(4-methylpiperazino-methyl)-benzoylamido]-2-methylphenyl}-4-(3-pyridyl)-2-pydmidine-amine]
[1]
  inhibition of PDGF-BB induced SMC migration, dose dependence: dose-dependent inhibitory effect
[1]; listed as free Imatinib
  inhibition of PDGF-BB induced SMC migration, dose dependence: dose-dependent manner
[1]; [4]
  inhibition of PDGF-BB induced SMC migration, dose dependence: dose-dependent manner
[1]; free Imatinib at 0.1 μM
  effect on PDGF-induced SMC migration: no effect
[1]; [5]
  effect on PDGF-induced SMC migration: no effects
[1]; free Imatinib at 10 μM
  effect on PDGF-induced SMC migration: normalizes
[2]
  inhibition of PDGF-BB induced SMC proliferation, dose dependence: dose-dependently reduces
[2]; listed as free Imatinib
  inhibition of PDGF-BB induced SMC proliferation, dose dependence: dose-dependent manner
[2]; [4]
  inhibition of PDGF-BB induced SMC proliferation, dose dependence: dose-dependent manner
[2]; free Imatinib at 0.1 μM
  effect on PDGF-induced SMC proliferation: no effect
[2]; [5]
  effect on PDGF-induced SMC proliferation: no effects
[2]; free Imatinib at 10 μM
  effect on PDGF-induced SMC proliferation: normalizes; also recorded: completely abolishes
[3]
  neointimal formation of vein graft: No suppression
